Assay results reported in patent US20130338178A1, “SIRTUIN MODULATORS AS INHIBITORS OF CYTOMEGALOVIRUS” (THE TRUSTEES OF PRINCETON UNIVERSITY, priority 2011, published 2013).
Read-outs that look alike come from different tables or passages of the source.

Assays:
HCMV pUL99 = assay: Late viral pUL99 expression and cytopathic effect in HCMV infected MRC5 cells; format: cell-based, human cytomegalovirus
SIRT1 [1] = biological target: T1, SIRT1 (Homo sapiens, UniProt Q96EB6); details: cited from earlier work
T1 sequence (Q96EB6 1-747): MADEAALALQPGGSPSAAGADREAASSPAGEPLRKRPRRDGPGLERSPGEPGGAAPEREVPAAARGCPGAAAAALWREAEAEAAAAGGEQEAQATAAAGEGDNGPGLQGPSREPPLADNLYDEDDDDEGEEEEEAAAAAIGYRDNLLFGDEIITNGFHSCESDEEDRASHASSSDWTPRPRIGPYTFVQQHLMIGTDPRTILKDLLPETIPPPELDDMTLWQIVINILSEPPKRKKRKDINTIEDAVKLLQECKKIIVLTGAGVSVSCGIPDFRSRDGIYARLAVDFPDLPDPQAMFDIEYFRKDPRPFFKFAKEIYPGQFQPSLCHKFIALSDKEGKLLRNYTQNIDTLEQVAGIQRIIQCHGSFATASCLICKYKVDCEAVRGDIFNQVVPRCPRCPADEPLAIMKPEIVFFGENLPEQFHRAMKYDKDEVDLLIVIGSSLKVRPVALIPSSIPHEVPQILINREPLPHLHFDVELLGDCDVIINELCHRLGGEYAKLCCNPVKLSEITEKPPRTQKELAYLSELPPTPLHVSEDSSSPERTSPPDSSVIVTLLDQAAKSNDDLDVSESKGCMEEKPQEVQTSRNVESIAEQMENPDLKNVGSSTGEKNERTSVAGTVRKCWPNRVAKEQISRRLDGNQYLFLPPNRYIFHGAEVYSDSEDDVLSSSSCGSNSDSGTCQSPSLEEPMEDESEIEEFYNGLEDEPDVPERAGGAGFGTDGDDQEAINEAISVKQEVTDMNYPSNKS

SIRT2 [2] = biological target: T2, SIRT2 (Homo sapiens, UniProt Q8IXJ6); details: 100 μM; cited from earlier work
T2 sequence (Q8IXJ6 1-389): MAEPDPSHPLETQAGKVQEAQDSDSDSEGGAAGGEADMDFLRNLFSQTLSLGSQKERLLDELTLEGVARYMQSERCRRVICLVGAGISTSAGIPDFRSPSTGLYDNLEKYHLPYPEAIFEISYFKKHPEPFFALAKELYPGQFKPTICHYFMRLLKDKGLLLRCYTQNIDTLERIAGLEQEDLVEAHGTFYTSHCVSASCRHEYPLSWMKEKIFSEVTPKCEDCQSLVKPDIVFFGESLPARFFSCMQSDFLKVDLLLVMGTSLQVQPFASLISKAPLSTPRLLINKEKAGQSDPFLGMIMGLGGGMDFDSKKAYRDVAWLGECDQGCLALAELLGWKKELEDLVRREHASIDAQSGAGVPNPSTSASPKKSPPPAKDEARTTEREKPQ

HCMV = assay: Yield of infectious HCMV from drug-treated infected MRC5 fibroblasts; format: cell-based, human cytomegalovirus; details: for reduction of the yield of infectious HCMV by a factor of: MRC5, 10% fetal calf serum, added 4 hours after infection
[3] = tested on: Burkitt lymphoma xenografts; details: mouse, in vivo; cited from earlier work
[4] = mice; cited from earlier work
[5] = tested on: Influenza A (WSN/33/A, PR8); format: cell-based, influenza A virus
Hst2 = Hst2 (Saccharomyces cerevisiae, UniProt P53686); details: cited from earlier work
SIRT2 [6] = biological target: T2, SIRT2; details: cited from earlier work
SIRT3 = biological target: T3, SIRT3 (Homo sapiens, UniProt Q9NTG7); details: cited from earlier work
T3 sequence (Q9NTG7 1-399): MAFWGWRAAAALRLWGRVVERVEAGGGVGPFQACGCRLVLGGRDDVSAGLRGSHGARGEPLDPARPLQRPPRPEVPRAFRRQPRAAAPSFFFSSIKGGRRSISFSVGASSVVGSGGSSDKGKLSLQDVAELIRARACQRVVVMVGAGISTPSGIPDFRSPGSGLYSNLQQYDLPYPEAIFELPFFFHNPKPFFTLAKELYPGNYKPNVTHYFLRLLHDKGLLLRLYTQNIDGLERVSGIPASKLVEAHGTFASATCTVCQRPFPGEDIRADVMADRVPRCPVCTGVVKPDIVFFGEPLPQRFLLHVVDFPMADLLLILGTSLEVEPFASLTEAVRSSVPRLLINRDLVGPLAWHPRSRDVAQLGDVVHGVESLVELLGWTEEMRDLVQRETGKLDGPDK

SIRT1 [7] = biological target: T1, SIRT1; details: cited from earlier work; remark: listed apart in the source
[8] = tested on: tumor necrosis factor alpha (TNFα) release; details: cited from earlier work

Sequence of Hst2 (P53686 whole entry): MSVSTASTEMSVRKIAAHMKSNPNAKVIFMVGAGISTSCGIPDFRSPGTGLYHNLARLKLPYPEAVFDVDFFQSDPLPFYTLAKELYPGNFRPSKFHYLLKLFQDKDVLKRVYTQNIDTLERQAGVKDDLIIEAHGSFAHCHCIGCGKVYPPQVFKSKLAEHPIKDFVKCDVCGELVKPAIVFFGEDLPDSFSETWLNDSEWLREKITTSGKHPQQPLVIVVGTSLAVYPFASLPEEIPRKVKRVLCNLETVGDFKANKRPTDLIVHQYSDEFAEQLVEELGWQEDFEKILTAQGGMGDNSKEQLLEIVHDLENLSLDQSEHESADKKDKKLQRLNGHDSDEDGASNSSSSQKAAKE

Compound: Oc1ccc(C=Cc2cc(O)cc(O)c2)cc1 [Resveratrol]
- cytopathic effect of HCMV (HCMV pUL99; HCMV infected MRC5 cells, added 4 hours after infection, data not shown): inhibited
- expression of late viral pUL99 (HCMV pUL99; dose dependent, data not shown): substantially reduced
- increase of SIRT1 activity (SIRT1 [1]; 46 μM): 1.5 fold
- increase of SIRT1 activity (SIRT1 [1]; 100 μM): 13 fold
- EC1.5: The concentration to activate 1.5-fold (SIRT1 [1]): 46 µM
- activation of SIRT2 (SIRT2 [2]): does not activate
- reduction of the yield of infectious HCMV by a factor of (HCMV; 50 μM): > 18 fold
- reduction of the yield of infectious HCMV by a factor of (HCMV; 100 μM): > 100 fold

Compound: Cambinol
- pUL99 accumulation (HCMV pUL99; 50 μM, data not shown): substantial block
- Burkitt lymphoma xenografts [3]: inhibits
- virus yield (HCMV; 50 μM, 96 h after infection, limit of detection): < 10^2 IU/ml
- tolerability [4]: well-tolerated
- inhibition of influenza A in combination with oseltamivir [5]: cooperated with oseltamivir
- production of infectious Influenza A progeny [5]: inhibited
- IC50 (Hst2): > 1000 µM

Compound: CC(=O)Nc1ccc(NC(=S)NC(=O)c2ccc(C(C)(C)C)cc2)cc1 [Tenovin 1]
- IC50 (SIRT2 [6]): 10 µM
- IC50 (SIRT3): 67 µM
- IC50 (SIRT1 [7]): 21 µM

Compound: Nc1c(S(=O)(=O)c2ccccc2)c2nc3ccccc3nc2n1-c1ccc(F)cc1 [CAY10602]
- pUL99 expression (HCMV pUL99; 25 μM): almost completely inhibited
- suppression of TNFα release, extent relative to resveratrol [8]: 10 fold
